Experimental data published in PMC8820617, “Machine learning-driven identification of drugs inhibiting cytochrome P450 2C9” (PLoS Computational Biology, 2022).
“Also recorded” adds a separate entry of the source. Where two headings read alike, the source gives them in different places.

Columns and labels:
[1] = biological target: T1, CYP2C9 (Homo sapiens, UniProt P11712); experiment: Inhibition of CYP2C9 activity in HepG2 cells expressing CYP2C9 (P450-Glo CYP2C9 assay with Luciferin-H); settings: for Inhibition of CYP2C9 activity in HepG2 cells (yes/no) / Dose-dependent inhibition (yes/no): HepG2 cells expressing CYP2C9; for Inhibition of CYP2C9 activity in HepG2 cells (yes/no): concentration range with cell viability > 80%; for Dose-dependent inhibition (yes/no): five-step dilution series 0.5 to 50 μM; for Any effect (inhibition of CYP2C9 activity and/or cytotoxicity on HepG2 cells expressing CYP2C9): over the range of concentrations used
[2] = tested on: HepG2 cells expressing CYP2C9; experiment: Cytotoxicity (MTS assay) in HepG2 cells expressing CYP2C9; settings: for min [c]: minimal concentration that increases the cytotoxicity: HepG2 cells expressing CYP2C9; for min [c]: minimal concentration that increases the cytotoxicity / Increased cytotoxicity in HepG2 cells expressing CYP2C9 (yes/no): threshold cell viability 80%; for Increased cytotoxicity in HepG2 cells expressing CYP2C9 (yes/no) / % living HepG2 cells expressing CYP2C9 after incubation with the min [c]: MTS assay; for Increased cytotoxicity in HepG2 cells expressing CYP2C9 (yes/no): compared with wild-type HepG2 cells; for % living HepG2 cells expressing CYP2C9 after incubation with the min [c]: at min [c] of the compound
[3] = biological target: T2, CYP2C9 supersomes (Homo sapiens, UniProt P11712); experiment: Inhibition of CYP2C9 on recombinant supersomes (diclofenac 4-hydroxylation, LC/MS-MS); settings: for IC50: IC50 values determined with CYP2C9 supersomes, substrate diclofenac 5 μM, recombinant supersomes
Protocol: (§1) A CYP2C9-specific substrate (diclofenac) and recombinant supersomes were incubated with and without the study compounds (according to the protocol optimized by the Service Provider Admescope (Finland)). The concentrations of the studied compounds were 0.3, 1, 3, 10, 20, 30, 50, 60, 70, 90 and 100 μM. […] The enzymatic reactions were started after 6 min of preincubation by adding NADPH and terminated after 15 min by adding ice-cold acetonitrile. The supernatant was collected and centrifuged for analyses. The samples were analyzed by LC/MS-MS to determine the level of metabolites in the absence and presence of a candidate molecule. Spiked standard samples were not used, but quantification based on relative peak areas was performed (solvent control = 100%). The disappearance was evaluated as relative LC/MS peak areas, and the 0-min time points were marked as 100%. The disappearance rate was used to calculate the half-life and in vitro clearance. For details of the method, see S2 Text.
(§2) Details of analytical method for inhibition tests using CYP2C9 supersomes and calculation of IC50
(§3) Test compound concentrations: Test compound Test concentrations (µM)
(§4) Diclofenac at 5 µM for CYP2C9
(§5) Substrates and concentrations:
(§6) Instrumentation: Waters Acquity UPLC + Thermo TSQ Endura triple quadrupole MS
(§7) The IC50 value for the test compound was determined by fitting following equation to the data
(§8) A% = percentual activity remaining
(§9) Top = the upper plateau of percentual activity (constrained to 100)
(§10) Bottom = the lower plateau of percentual activity (constrained to 0)
(§11) [I] = inhibitor concentration
(§12) (1 picture or pasted object on this page, not shown here)

[4] = biological target: T2, CYP2C9 supersomes; experiment: Metabolism assays with recombinant CYP2C9 supersomes (UPLC/HR-MS); settings: incubation with recombinant CYP2C9 supersomes
[5] = biological target: T1, CYP2C9; experiment: Inhibition of CYP2C9 on recombinant supersomes (diclofenac 4-hydroxylation, LC/MS-MS); settings: human, recombinant CYP2C9 supersomes, probe diclofenac 5 μM (4-hydroxylation), IC50 values determined with CYP2C9 supersomes, substrate diclofenac 5 μM; recombinant supersomes
Protocol: as §1, §2, §3, §4, §5, §6, §7, §8, §9, §10, §11, §12

[6] = biological target: T1, CYP2C9
[7] = tested on: HepG2 cells expressing CYP2C9; settings: human

T1 sequence (P11712 whole entry): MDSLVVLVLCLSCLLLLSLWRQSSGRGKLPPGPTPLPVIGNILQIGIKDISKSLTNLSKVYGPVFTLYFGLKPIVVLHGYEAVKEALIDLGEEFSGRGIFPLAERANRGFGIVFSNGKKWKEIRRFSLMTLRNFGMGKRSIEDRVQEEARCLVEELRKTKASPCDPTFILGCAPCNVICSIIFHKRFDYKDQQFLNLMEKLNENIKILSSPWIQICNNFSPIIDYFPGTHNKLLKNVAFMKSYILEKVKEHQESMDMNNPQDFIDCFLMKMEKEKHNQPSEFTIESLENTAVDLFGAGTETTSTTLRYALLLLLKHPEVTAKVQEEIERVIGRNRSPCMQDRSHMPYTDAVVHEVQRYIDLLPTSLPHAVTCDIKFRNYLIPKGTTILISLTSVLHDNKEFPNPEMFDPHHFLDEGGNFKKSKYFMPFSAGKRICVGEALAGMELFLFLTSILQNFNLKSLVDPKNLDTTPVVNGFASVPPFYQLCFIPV
T2 sequence (P11712 whole entry): as above

Ciltoprazine
Inhibition of CYP2C9 activity in HepG2 cells (yes/no) [1]: yes | Dose-dependent inhibition (yes/no) [1]: no | min [c]: minimal concentration that increases the cytotoxicity [2]: 75 µM | Increased cytotoxicity in HepG2 cells expressing CYP2C9 (yes/no) [2]: yes | % living HepG2 cells expressing CYP2C9 after incubation with the min [c] [2]: 0%

CN(c1nccc(=O)[nH]1)C1CCN(c2nc3ccccc3n2Cc2ccc(F)cc2)CC1 [Mizolastine]
Inhibition of CYP2C9 activity in HepG2 cells (yes/no) [1]: no | Dose-dependent inhibition (yes/no) [1]: no | min [c]: minimal concentration that increases the cytotoxicity [2]: 50 µM | Increased cytotoxicity in HepG2 cells expressing CYP2C9 (yes/no) [2]: yes | % living HepG2 cells expressing CYP2C9 after incubation with the min [c] [2]: 60%

O=C1NCCN1CCN1CCC(c2cn(-c3ccc(F)cc3)c3ccc(Cl)cc23)CC1 [Sertindole]
Inhibition of CYP2C9 activity in HepG2 cells (yes/no) [1]: yes | Dose-dependent inhibition (yes/no) [1]: yes | min [c]: minimal concentration that increases the cytotoxicity [2]: 10 µM | Increased cytotoxicity in HepG2 cells expressing CYP2C9 (yes/no) [2]: yes | % living HepG2 cells expressing CYP2C9 after incubation with the min [c] [2]: 60% | IC50 [3]: 40 µM

CC(C)(C)C(=O)Oc1ccc(S(=O)(=O)Nc2ccccc2C(=O)NCC(=O)O)cc1 [Sivelestat]
Inhibition of CYP2C9 activity in HepG2 cells (yes/no) [1]: no | Dose-dependent inhibition (yes/no) [1]: no | Any effect (inhibition of CYP2C9 activity and/or cytotoxicity on HepG2 cells expressing CYP2C9) [1]: did not show any effect | Increased cytotoxicity in HepG2 cells expressing CYP2C9 (yes/no) [2]: no

Clc1ccc(Nc2nnc(Cc3ccncc3)c3ccccc23)cc1 [Vatalanib]
Inhibition of CYP2C9 activity in HepG2 cells (yes/no) [1]: yes | Dose-dependent inhibition (yes/no) [1]: yes | Metabolism by CYP2C9 (in words) [4]: metabolized by CYP2C9 | min [c]: minimal concentration that increases the cytotoxicity [2]: 20 µM | Increased cytotoxicity in HepG2 cells expressing CYP2C9 (yes/no) [2]: yes | % living HepG2 cells expressing CYP2C9 after incubation with the min [c] [2]: 50% | Inhibition effect on CYP2C9 (in words) ([3]; CYP2C9 supersomes): strongly inhibit | IC50 [3]: < 18 µM | IC50 at 15 min [5]: < 0.3 µM

C[C@H](Nc1ncnc2[nH]cnc12)c1cc2cccc(Cl)c2c(=O)n1-c1ccccc1 [Duvelisib]
Inhibition of CYP2C9 activity in HepG2 cells (yes/no) [1]: yes | Dose-dependent inhibition (yes/no) [1]: yes | Increased cytotoxicity in HepG2 cells expressing CYP2C9 (yes/no) [2]: no | IC50 [3]: 52 µM

CCN1CCN(Cc2ccc(Nc3ncc(F)c(-c4cc(F)c5nc(C)n(C(C)C)c5c4)n3)nc2)CC1 [Abemaciclib]
Inhibition of CYP2C9 activity in HepG2 cells (yes/no) [1]: no | Dose-dependent inhibition (yes/no) [1]: no | Metabolism by CYP2C9 (in words) [4]: metabolized by CYP2C9 | min [c]: minimal concentration that increases the cytotoxicity [2]: 5 µM | Increased cytotoxicity in HepG2 cells expressing CYP2C9 (yes/no) [2]: yes | % living HepG2 cells expressing CYP2C9 after incubation with the min [c] [2]: 30% | Inhibition effect on CYP2C9 (in words) ([3]; CYP2C9 supersomes): no direct inhibition; also recorded: No any inhibition effect | IC50 [3]: > 100 µM

COc1ccc(OC(=O)N(CC(=O)O)Cc2ccc(OCCc3nc(-c4ccccc4)oc3C)cc2)cc1 [Muraglitazar]
Inhibition of CYP2C9 activity in HepG2 cells (yes/no) [1]: no | Dose-dependent inhibition (yes/no) [1]: no | Any effect (inhibition of CYP2C9 activity and/or cytotoxicity on HepG2 cells expressing CYP2C9) [1]: did not show any effect | Increased cytotoxicity in HepG2 cells expressing CYP2C9 (yes/no) [2]: no

Cc1ccccc1-n1c(/C=C/c2ccccn2)nc2ccccc2c1=O [Piriqualone]
Inhibition of CYP2C9 activity in HepG2 cells (yes/no) [1]: yes | Dose-dependent inhibition (yes/no) [1]: yes | min [c]: minimal concentration that increases the cytotoxicity [2]: 75 µM | Increased cytotoxicity in HepG2 cells expressing CYP2C9 (yes/no) [2]: yes | % living HepG2 cells expressing CYP2C9 after incubation with the min [c] [2]: 0% | IC50 [3]: 10.9 µM

O=c1[nH]c2ccccc2c(=O)n1CCCN1CCN(c2cccc(Cl)c2)CC1 [Cloperidone]
Inhibition of CYP2C9 activity in HepG2 cells (yes/no) [1]: yes | Dose-dependent inhibition (yes/no) [1]: yes | Metabolism by CYP2C9 (in words) [4]: metabolized by CYP2C9 | Cytotoxicity after incubation with HepG2 cells expressing CYP2C9 (in words) [2]: increased cytotoxicity | min [c]: minimal concentration that increases the cytotoxicity [2]: 100 µM | Increased cytotoxicity in HepG2 cells expressing CYP2C9 (yes/no) [2]: yes | % living HepG2 cells expressing CYP2C9 after incubation with the min [c] [2]: 40% | Inhibition effect on CYP2C9 (in words) ([3]; CYP2C9 supersomes): strongly inhibit | IC50 [3]: 17.7 µM

O=C(O[C@H]1CN2CCC1CC2)N(Cc1cc(F)c(F)c(F)c1)c1cccc(F)c1 [Tarafenacin]
Dose-dependent inhibition (yes/no) [6]: no | Inhibition of CYP2C9 activity in HepG2 cells (yes/no) [6]: yes | % living HepG2 cells expressing CYP2C9 after incubation with the min [c] [7]: 0% | min [c]: minimal concentration that increases the cytotoxicity [7]: 50 µM | IC50 [3]: > 100 µM | Inhibition effect on CYP2C9 (in words) ([3]; recombinant enzyme): weak inhibition effect

CN(c1ncccc1CNc1nc(Nc2ccc3c(c2)CC(=O)N3)ncc1C(F)(F)F)S(C)(=O)=O [Pf-562271]
Inhibition of CYP2C9 activity in HepG2 cells (yes/no) [1]: yes | Dose-dependent inhibition (yes/no) [1]: no | min [c]: minimal concentration that increases the cytotoxicity [2]: 10 µM | Increased cytotoxicity in HepG2 cells expressing CYP2C9 (yes/no) [2]: yes | % living HepG2 cells expressing CYP2C9 after incubation with the min [c] [2]: 65%

Cc1nc(Nc2ncc(C(=O)Nc3c(C)cccc3Cl)s2)cc(N2CCN(CCO)CC2)n1 [Dasatinib]
Inhibition of CYP2C9 activity in HepG2 cells (yes/no) [1]: yes | Dose-dependent inhibition (yes/no) [1]: yes | min [c]: minimal concentration that increases the cytotoxicity [2]: 20 µM | Increased cytotoxicity in HepG2 cells expressing CYP2C9 (yes/no) [2]: yes | % living HepG2 cells expressing CYP2C9 after incubation with the min [c] [2]: 45%

CCCSc1nc(N[C@@H]2C[C@H]2c2ccc(F)c(F)c2)c2nnn([C@@H]3C[C@H](OCCO)[C@@H](O)[C@H]3O)c2n1 [Ticagrelor]
Inhibition of CYP2C9 activity in HepG2 cells (yes/no) [1]: yes | Dose-dependent inhibition (yes/no) [1]: yes | Increased cytotoxicity in HepG2 cells expressing CYP2C9 (yes/no) [2]: no | IC50 [3]: 11.8 µM

CC(=O)N1CCN(CCOc2ccc(C3CCN(C4=Nn5c(nnc5C(F)(F)F)CC4)CC3)cc2)CC1 [Azd3514]
Inhibition of CYP2C9 activity in HepG2 cells (yes/no) [1]: no | Dose-dependent inhibition (yes/no) [1]: no | min [c]: minimal concentration that increases the cytotoxicity [2]: 20 µM | Increased cytotoxicity in HepG2 cells expressing CYP2C9 (yes/no) [2]: yes | % living HepG2 cells expressing CYP2C9 after incubation with the min [c] [2]: 60%

Bifeprofen
Inhibition of CYP2C9 activity in HepG2 cells (yes/no) [1]: yes | Dose-dependent inhibition (yes/no) [1]: yes | min [c]: minimal concentration that increases the cytotoxicity [2]: 75 µM | Increased cytotoxicity in HepG2 cells expressing CYP2C9 (yes/no) [2]: yes | % living HepG2 cells expressing CYP2C9 after incubation with the min [c] [2]: 50%

CC(C)Oc1ccc(S(=O)(=O)N2CCN(c3ccc(-c4ncco4)c(OCC(=O)O)c3)CC2)cc1 [Asapiprant]
Inhibition of CYP2C9 activity in HepG2 cells (yes/no) [1]: yes | Dose-dependent inhibition (yes/no) [1]: yes | Increased cytotoxicity in HepG2 cells expressing CYP2C9 (yes/no) [2]: no | IC50 [3]: 46 µM
